Experimental data reported in ChEMBL document CHEMBL1201862, “PubChem BioAssay data set” (2004).
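1) Cells in 96-well plates. 2) Compound, 48 h, 5 concentrations. 3) Linear interpolation between surrounding doses. 4) Unreached endpoint = highest concentration. Here, GI50 denotes the concentration required for 50% inhibition of growth.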 Active and inactive are the calls of the source. No stated cut-off is given here; in the data, active = GI50 up to about 1.1 µM and inactive = higher.

Key:
Experiment in all cases: growth of human tumour cells (NCI), 48 h
[1] = system: NCI-H460
[2] = system: OVCAR-5
[3] = system: NCI-H522
[4] = system: EKVX
[5] = system: HOP-92
[6] = system: OVCAR-4
[7] = system: K562
[8] = system: A498
[9] = system: BT-549
[10] = system: SK-OV-3
[11] = system: KM12
[12] = system: UO-31
[13] = system: CAKI-1
[14] = system: IGROV-1
[15] = system: U-251
[16] = system: SK-MEL-28
[17] = system: Malme-3M
[18] = system: SF-295
[19] = system: SK-MEL-5
[20] = system: CCRF-CEM
[21] = system: RXF 393
[22] = system: ACHN
[23] = system: HCT-116
[24] = system: HCC 2998
[25] = system: NCI/ADR-RES
[26] = system: SNB-75
[27] = system: OVCAR-8
[28] = system: MCF7
[29] = system: MOLT-4
[30] = system: M14
[31] = system: RPMI-8226
[32] = system: DU-145
[33] = system: UACC-62
[34] = system: TK-10
[35] = system: MDA-MB-231
[36] = system: SW-620
[37] = system: SK-MEL-2
[38] = system: MDA-N
[39] = system: NCI-H23
[40] = system: A549
[41] = system: 786-0
[42] = system: SF-268
[43] = system: OVCAR-3
[44] = system: MDA-MB-435
[45] = system: SNB-19
[46] = system: Hs-578T
[47] = system: PC-3
[48] = system: UACC-257
[49] = system: COLO 205
[50] = system: HT-29
[51] = system: HCT-15
[52] = system: HOP-62
[53] = system: SN12C
[54] = system: LOX IMVI
[55] = system: T47D
[56] = system: SF-539
[57] = system: SR
[58] = system: NCI-H226
[59] = system: HL-60

C/C=C\C(CC(=O)NCCC1CN(C(=O)OCc2ccccc2)c2ccccc21)CC(=O)OC (stereo unspecified)
GI50 [1]: 86.5 µM (inactive) | GI50 [2]: > 100 µM (inactive) | GI50 [3]: > 100 µM (inactive) | GI50 [4]: > 100 µM (inactive) | GI50 [5]: 72.1 µM (inactive) | GI50 [6]: > 100 µM (inactive) | GI50 [7]: > 100 µM (inactive) | GI50 [8]: > 100 µM (inactive) | GI50 [9]: > 100 µM (inactive) | GI50 [10]: > 100 µM (inactive) | GI50 [11]: > 100 µM (inactive) | GI50 [12]: > 100 µM (inactive) | GI50 [13]: > 100 µM (inactive) | GI50 [14]: > 100 µM (inactive) | GI50 [15]: > 100 µM (inactive) | GI50 [16]: > 100 µM (inactive) | GI50 [17]: > 100 µM (inactive) | GI50 [18]: > 100 µM (inactive) | GI50 [19]: > 100 µM (inactive) | GI50 [20]: > 100 µM (inactive) | GI50 [21]: > 100 µM (inactive) | GI50 [22]: > 100 µM (inactive) | GI50 [23]: > 100 µM (inactive) | GI50 [24]: > 100 µM (inactive) | GI50 [25]: > 100 µM (inactive) | GI50 [26]: > 100 µM (inactive) | GI50 [27]: > 100 µM (inactive) | GI50 [28]: > 100 µM (inactive) | GI50 [29]: > 100 µM (inactive) | GI50 [30]: > 100 µM (inactive) | GI50 [31]: 79.4 µM (inactive) | GI50 [32]: > 100 µM (inactive) | GI50 [33]: > 100 µM (inactive) | GI50 [34]: > 100 µM (inactive) | GI50 [35]: > 100 µM (inactive) | GI50 [36]: > 100 µM (inactive) | GI50 [37]: > 100 µM (inactive) | GI50 [38]: > 100 µM (inactive) | GI50 [39]: > 100 µM (inactive) | GI50 [40]: > 100 µM (inactive) | GI50 [41]: > 100 µM (inactive) | GI50 [42]: > 100 µM (inactive) | GI50 [43]: > 100 µM (inactive) | GI50 [44]: > 100 µM (inactive) | GI50 [45]: > 100 µM (inactive) | GI50 [46]: > 100 µM (inactive) | GI50 [47]: 99.8 µM (inactive) | GI50 [48]: > 100 µM (inactive) | GI50 [49]: 50.5 µM (inactive) | GI50 [50]: > 100 µM (inactive) | GI50 [51]: > 100 µM | GI50 [52]: > 100 µM (inactive)

c1ccc(C2(c3cc4ccccc4[nH]3)OCCO2)cc1
GI50 [1]: 36.9 µM (inactive) | GI50 [2]: 30.8 µM (inactive) | GI50 [4]: 23.9 µM (inactive) | GI50 [5]: 17.3 µM (inactive) | GI50 [6]: 32.2 µM (inactive) | GI50 [7]: 22.2 µM (inactive) | GI50 [8]: 37.2 µM (inactive) | GI50 [9]: 75.7 µM (inactive) | GI50 [10]: 85.1 µM (inactive) | GI50 [11]: 37.8 µM (inactive) | GI50 [12]: 42.6 µM (inactive) | GI50 [13]: 86.1 µM (inactive) | GI50 [14]: 34 µM (inactive) | GI50 [15]: > 100 µM (inactive) | GI50 [16]: 28.2 µM (inactive) | GI50 [18]: 53.1 µM (inactive) | GI50 [19]: 23.1 µM (inactive) | GI50 [20]: 18.4 µM (inactive) | GI50 [21]: > 100 µM (inactive) | GI50 [22]: 35.9 µM (inactive) | GI50 [23]: 37.8 µM (inactive) | GI50 [25]: 67.6 µM (inactive) | GI50 [26]: > 100 µM (inactive) | GI50 [53]: 41.2 µM (inactive) | GI50 [54]: 38 µM (inactive) | GI50 [27]: 76.2 µM (inactive) | GI50 [28]: 31 µM (inactive) | GI50 [29]: 11.6 µM (inactive) | GI50 [55]: 59.8 µM (inactive) | GI50 [30]: 33.3 µM (inactive) | GI50 [31]: 27.3 µM (inactive) | GI50 [32]: 65.3 µM (inactive) | GI50 [33]: 38.8 µM (inactive) | GI50 [56]: > 100 µM (inactive) | GI50 [34]: > 100 µM (inactive) | GI50 [35]: > 100 µM (inactive) | GI50 [36]: 24 µM (inactive) | GI50 [37]: 42.6 µM (inactive) | GI50 [57]: 22.4 µM (inactive) | GI50 [38]: 49.1 µM (inactive) | GI50 [39]: > 100 µM (inactive) | GI50 [40]: 39.4 µM (inactive) | GI50 [41]: > 100 µM (inactive) | GI50 [42]: 47 µM (inactive) | GI50 [43]: 53.5 µM (inactive) | GI50 [44]: 31.4 µM (inactive) | GI50 [58]: 36.6 µM (inactive) | GI50 [45]: > 100 µM (inactive) | GI50 [47]: 36.6 µM (inactive) | GI50 [48]: 31.6 µM (inactive) | GI50 [49]: 27.9 µM (inactive) | GI50 [50]: 26.1 µM (inactive) | GI50 [51]: 41.6 µM

CC(=O)Nc1ccccc1SCCSSCCSc1ccccc1NC(C)=O
GI50 [1]: 25.1 µM (inactive) | GI50 [2]: 31.5 µM (inactive) | GI50 [3]: 16.8 µM (inactive) | GI50 [4]: 43.3 µM (inactive) | GI50 [5]: 17.5 µM (inactive) | GI50 [6]: 22.6 µM (inactive) | GI50 [7]: 28.6 µM (inactive) | GI50 [9]: 51.9 µM (inactive) | GI50 [10]: 27.8 µM (inactive) | GI50 [11]: 40.1 µM (inactive) | GI50 [12]: 17.8 µM (inactive) | GI50 [13]: 20.8 µM (inactive) | GI50 [14]: 20.3 µM (inactive) | GI50 [15]: 26.5 µM (inactive) | GI50 [17]: 34.7 µM (inactive) | GI50 [18]: 26.7 µM (inactive) | GI50 [19]: 38.5 µM (inactive) | GI50 [20]: 23.6 µM (inactive) | GI50 [21]: 34.2 µM (inactive) | GI50 [22]: 20.6 µM (inactive) | GI50 [23]: 36.2 µM (inactive) | GI50 [24]: 22.3 µM (inactive) | GI50 [25]: 31.8 µM (inactive) | GI50 [26]: 24.3 µM (inactive) | GI50 [53]: 32.4 µM (inactive) | GI50 [54]: 20 µM (inactive) | GI50 [27]: 38.9 µM (inactive) | GI50 [28]: 38.9 µM (inactive) | GI50 [29]: 24 µM (inactive) | GI50 [55]: 25.6 µM (inactive) | GI50 [30]: 31.5 µM (inactive) | GI50 [31]: 17.9 µM (inactive) | GI50 [32]: 25.6 µM (inactive) | GI50 [33]: 32 µM (inactive) | GI50 [56]: 24 µM (inactive) | GI50 [34]: 34.1 µM (inactive) | GI50 [35]: 32.3 µM (inactive) | GI50 [36]: 39.3 µM (inactive) | GI50 [37]: 27.9 µM (inactive) | GI50 [57]: 34.4 µM (inactive) | GI50 [38]: 25.4 µM (inactive) | GI50 [59]: 17.4 µM (inactive) | GI50 [39]: 30.1 µM (inactive) | GI50 [40]: 25.7 µM (inactive) | GI50 [41]: 28.4 µM (inactive) | GI50 [42]: 38.2 µM (inactive) | GI50 [43]: 28.8 µM (inactive) | GI50 [44]: 19.5 µM (inactive) | GI50 [58]: 31.1 µM (inactive) | GI50 [45]: 17.7 µM (inactive) | GI50 [47]: 23.1 µM (inactive) | GI50 [48]: 20.7 µM (inactive) | GI50 [49]: 20.4 µM (inactive) | GI50 [50]: 28.8 µM (inactive) | GI50 [51]: 20.7 µM | GI50 [52]: 58.6 µM (inactive)
